# Measurements published in patent publication US10208019B2, “GLP-1 receptor agonists and uses thereof” (Pfizer Inc., priority 2016, dated 2019).
# pEC50: −log10 of the molar value.
# Columns and labels:
# [1] = target: human GLP-1R (Homo sapiens (Human), UniProt P43220, L260F); assay: CHO GLP-1R Clone C6—Assay 2: HTRF cAMP cell-based functional agonist assay (low GLP-1R density); conditions: for pEC50: CHO GLP-1R Clone C6, cAMP HTRF, geometric mean; for Emax: CHO GLP-1R Clone C6, relative to saturating concentration of full agonist GLP-1 (1 μM), arithmetic mean, read-out: Assay 2 Emax (%)
# Sequence of human GLP-1R (Homo sapiens (Human), UniProt P43220, L260F) (P43220 24-463 L260F): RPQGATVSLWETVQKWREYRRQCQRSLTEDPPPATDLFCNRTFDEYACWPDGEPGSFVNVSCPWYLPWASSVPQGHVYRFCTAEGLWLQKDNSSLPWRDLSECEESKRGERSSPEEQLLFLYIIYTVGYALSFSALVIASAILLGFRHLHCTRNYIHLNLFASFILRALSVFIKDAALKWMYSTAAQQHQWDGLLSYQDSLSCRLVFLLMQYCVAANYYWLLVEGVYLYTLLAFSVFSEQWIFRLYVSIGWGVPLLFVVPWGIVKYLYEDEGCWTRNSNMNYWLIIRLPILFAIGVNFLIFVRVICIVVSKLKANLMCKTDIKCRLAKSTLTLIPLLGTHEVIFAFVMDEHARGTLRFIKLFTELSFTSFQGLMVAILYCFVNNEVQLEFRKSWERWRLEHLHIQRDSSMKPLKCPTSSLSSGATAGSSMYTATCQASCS
# Method: GLP-1R-mediated agonist activity was determined with a cell-based functional assay utilizing an HTRF (Homogeneous Time-Resolved Fluorescence) cAMP detection kit (cAMP HI Range Assay Kit; Cis Bio cat #62AM6PEJ) that measures cAMP levels in the cell. The method is a competitive immunoassay between native cAMP produced by the cells and exogenous cAMP labeled with the dye d2. The tracer binding is visualized by a mAb anti-cAMP labeled with Cryptate. The specific signal (i.e. energy transfer) is inversely proportional to the concentration of cAMP in either a standard or an experimental sample.
# The human GLP-1R coding sequence (NCBI Reference Sequence NP_002053.3, including naturally-occurring variant Leu260Phe) was subcloned into pcDNA5-FRT-TO and a clonal CHO cell line stably expressing a low receptor density was isolated using the Flp-In™ T-Rex™ System, as described by the manufacturer (ThermoFisher).
# Cells were removed from cryopreservation, re-suspended in 40 mL of Dulbecco's Phosphate Buffered Saline (DPBS-Lonza Cat #17-512Q) and centrifuged at 800×g for 5 min at 22° C. The DPBS was aspirated, and the cell pellet was re-suspended in 10 mL of complete growth medium (DMEM:F12 1:1 Mixture with HEPES, L-Gln, 500 mL (DMEM/F12 Lonza Cat #12-719F), 10% heat inactivated fetal bovine serum (Gibco Cat #16140-071), 5 mL of 100× Pen-Strep (Gibco Cat #15140-122), 5 mL of 100× L-Glutamine (Gibco Cat #25030-081), 700 μg/mL Hygromycin (Invitrogen Cat #10687010) and 15 μg/mL Blasticidin (Gibco Cat #R21001). A 1 mL sample of the cell suspension in growth media was counted on a Becton Dickinson ViCell to determine cell viability and cell count per mL. The remaining cell suspension was then adjusted with growth media to deliver 1600 viable cells per well using a Matrix Combi Multidrop reagent dispenser, and the cells were dispensed into a white 384 well tissue culture treated assay plate (Corning 3570). The assay plate was then incubated for 48 h at 37° C. in a humidified environment (95% O2, 5% CO2)
# Varying concentrations of each compound to be tested (in DMSO) were diluted in assay buffer [HBSS with Calcium/Magnesium (Lonza/BioWhittaker cat #10-527F)/0.1% BSA (Sigma Aldrich cat #A7409-1L)/20 mM HEPES (Lonza/BioWhittaker cat #17-737E)] containing 100 μM 3-isobutyl-1-methylxanthin (IBMX; Sigma cat #15879). The final DMSO concentration in the compound/assay buffer mixture is 1%.
# After 48 h, the growth media was removed from the assay plate wells, and the cells were treated with 20 μL of the serially diluted compound in assay buffer for 30 min at 37° C. in a humidified environment (95% O2, 5% CO2). Following the 30 min incubation, 10 μL of labeled d2 cAMP and 10 μL of anti-cAMP antibody (both diluted 1:20 in cell lysis buffer; as described in the manufacturer's assay protocol) were added to each well of the assay plate. The plates were then incubated at room temperature and after 60 minutes, changes in the HTRF signal were read with an Envision 2104 multi-label plate reader using excitation of 330 nm and emissions of 615 and 665 nm. Raw data were converted to nM cAMP by interpolation from a cAMP standard curve (as described in the manufacturer's assay protocol) and the percent effect was determined relative to a saturating concentration of the full agonist GLP-1 (1 μM) included on each plate. EC50 determinations were made from agonist dose response curves analyzed with a curve fitting program using a 4-parameter logistic dose response equation.
# [2] = target: human GLP-1R (Homo sapiens, UniProt P43220, G168S); assay: CHO GLP-1R Clone H6—Assay 1: HTRF cAMP cell-based functional agonist assay (high GLP-1R density); conditions: for pEC50: read-out: Assay 1 EC50, CHO GLP-1R Clone H6, cAMP HTRF, geometric mean; for Emax: read-out: Assay 1 Emax (%), CHO GLP-1R Clone H6, relative to saturating concentration of full agonist GLP-1 (1 μM), arithmetic mean
# Sequence of human GLP-1R (Homo sapiens, UniProt P43220, G168S) (P43220 24-463 G168S limits assumed): as the sequence (P43220 24-463 L260F) above, with G145S, F237L counted along it
pEC50 [1],Emax [1],pEC50 [2],Emax [2],Compound
7.57,87%,8.89,72%,"C[C@H]1CN(c2cccc(OCc3ccc(C#N)cc3F)n2)CCN1Cc1nc2ccc(C(=O)O)cc2n1Cc1ncco1 [Example 10A-15, 2-{[(2S)-4-{6-[(4-cyano-2-fluorobenzyl)oxy]pyridin-2-yl}-2-methylpiperazin-1-yl]methyl}-1-(1,3-oxazol-2-ylmethyl)-1H-benzimidazole-6-carboxylic acid]"
7.35,83%,8.77,67%,"C[C@H]1CN(c2cccc(OCc3ccc(Cl)cc3F)n2)CCN1Cc1nc2ccc(C(=O)O)cc2n1Cc1cnco1 [Example 10A-16, 2-{[(2S)-4-{6-[(4-chloro-2-fluorobenzyl)oxy]pyridin-2-yl}-2-methylpiperazin-1-yl]methyl}-1-(1,3-oxazol-5-ylmethyl)-1H-benzimidazole-6-carboxylic acid]"
7.23,85%,8.74,77%,C[C@H]1CN(c2cccc(OCc3ccc(C#N)cc3F)n2)CCN1Cc1nc2ccc(C(=O)O)cc2n1Cc1cnco1 [Example 10A-17]
7.48,78%,8.80,78%,"C[C@H]1CN(c2cccc(OCc3ccc(Cl)cc3F)n2)CCN1Cc1nc2ccc(C(=O)O)cc2n1Cc1ncco1 [Example 10A-18, 2-{[(2S)-4-{6-[(4-chloro-2-fluorobenzyl)oxy]pyridin-2-yl}-2-methylpiperazin-1-yl]methyl}-1-(1,3-oxazol-2-ylmethyl)-1H-benzimidazole-6-carboxylic acid]"
< 4.70,–,< 4.82,98%,Cc1nnc(Cn2c(CN3CCC(c4cccc(OCc5ccc(Cl)cc5F)n4)CC3)nc3ccc(C(=O)O)cc32)n1C [Example 10A-20]
6.40,100%,7.74,88%,CCn1cnnc1Cn1c(CN2CCN(c3cccc(OCc4ccc(Cl)cc4F)n3)C[C@@H]2C)nc2ccc(C(=O)O)cc21 [Example 10A-21]
7.00,79%,8.24,67%,C[C@H]1CN(c2cccc(OCc3ccc(Cl)cc3F)n2)CCN1Cc1nc2ccc(C(=O)O)cc2n1Cc1cnnn1C [Example 10A-22]
6.12,91%,7.42,76%,C[C@H]1CN(c2cccc(OCc3ccc(C#N)cc3F)n2)CCN1Cc1nc2ccc(C(=O)O)cc2n1Cc1cnnn1C [Example 10A-23]
6.89,94%,8.24,78%,N#Cc1ccc(COc2cccc(C3CCN(Cc4nc5ccc(C(=O)O)nc5n4Cc4cnco4)CC3)n2)c(F)c1 [Example 10A-24]
7.39,99%,8.77,82%,C[C@H]1CN(c2cccc(OCc3ccc(C#N)cc3F)n2)CCN1Cc1nc2ccc(C(=O)O)cc2n1Cc1cncn1C [Example 10A-25]
6.72,80%,8.15,59%,"COC1(Cn2c(CN3CCC(c4cccc(OCc5ccc(Cl)cc5F)n4)CC3)nc3ccc(C(=O)O)cc32)CCC1 [Example 10A-26, 2-[(4-{6-[(4-chloro-2-fluorobenzyl)oxy]pyridin-2-yl}piperidin-1-yl)methyl]-1-[(1-methoxycyclobutyl)methyl]-1H-benzimidazole-6-carboxylic acid]"
8.30,94%,9.33,77%,"CCn1cncc1Cn1c(CN2CCC(c3cccc(OCc4ccc(F)cc4F)n3)CC2)nc2ccc(C(=O)O)cc21 [Example 10A-32, 2-[(4-{6-[(2,4-difluorobenzyl)oxy]pyridin-2-yl}piperidin-1-yl)methyl]-1-[(1-ethyl-1H-imidazol-5-yl)methyl]-1H-benzimidazole-6-carboxylic acid]"
7.62,91%,8.82,73%,"O=C(O)c1ccc2nc(CN3CCN(c4cccc(OCc5ccc(Cl)cc5F)n4)CC3)n(Cc3ncco3)c2c1 [Example 10A-33, 2-[(4-{6-[(4-chloro-2-fluorobenzyl)oxy]pyridin-2-yl}piperazin-1-yl)methyl]-1-(1,3-oxazol-2-ylmethyl)-1H-benzimidazole-6-carboxylic acid]"
7.54,95%,8.82,80%,"N#Cc1ccc(COc2cccc(N3CCN(Cc4nc5ccc(C(=O)O)cc5n4Cc4ncco4)CC3)n2)c(F)c1 [Example 10A-34, 2-[(4-{6-[(4-cyano-2-fluorobenzyl)oxy]pyridin-2-yl}piperazin-1-yl)methyl]-1-(1,3-oxazol-2-ylmethyl)-1H-benzimidazole-6-carboxylic acid]"
8.42,93%,9.52,93%,"CCn1cncc1Cn1c(CN2CCN(c3cccc(OCc4ccc(C#N)cc4F)n3)CC2)nc2ccc(C(=O)O)cc21 [Example 10A-35, 2-[(4-{6-[(4-cyano-2-fluorobenzyl)oxy]pyridin-2-yl}piperazin-1-yl)methyl]-1-[(1-ethyl-1H-imidazol-5-yl)methyl]-1H-benzimidazole-6-carboxylic acid]"
7.89,110%,9.48,82%,"Cn1cncc1Cn1c(CN2CCN(c3cccc(OCc4ccc(Cl)cc4F)n3)CC2)nc2ccc(C(=O)O)cc21 [Example 10A-36, 2-[(4-{6-[(4-chloro-2-fluorobenzyl)oxy]pyridin-2-yl}piperazin-1-yl)methyl]-1-[(1-methyl-1H-imidazol-5-yl)methyl]-1H-benzimidazole-6-carboxylic acid]"
7.64,110%,8.47,86%,"Cn1cncc1Cn1c(CN2CCN(c3cccc(OCc4ccc(C#N)cc4F)n3)CC2)nc2ccc(C(=O)O)cc21 [Example 10A-37, 2-[(4-{6-[(4-cyano-2-fluorobenzyl)oxy]pyridin-2-yl}piperazin-1-yl)methyl]-1-[(1-methyl-1H-imidazol-5-yl)methyl]-1H-benzimidazole-6-carboxylic acid]"
6.85,82%,7.92,75%,"O=C(O)c1ccc2nc(CN3CCC(c4cccc(OCc5ccc(Cl)cc5F)n4)CC3)n(Cc3cocn3)c2c1 [Example 10A-41, 2-[(4-{6-[(4-chloro-2-fluorobenzyl)oxy]pyridin-2-yl}piperidin-1-yl)methyl]-1-(1,3-oxazol-4-ylmethyl)-1H-benzimidazole-6-carboxylic acid]"
7.54,74%,8.57,73%,"O=C(O)c1ccc2nc(CN3CCC(c4cccc(OCc5ccc(Cl)cc5F)n4)CC3)n(Cc3ncco3)c2c1 [Example 10A-42, 2-[(4-{6-[(4-chloro-2-fluorobenzyl)oxy]pyridin-2-yl}piperidin-1-yl)methyl]-1-(1,3-oxazol-2-ylmethyl)-1H-benzimidazole-6-carboxylic acid]"
7.32,79%,8.40,64%,"N#Cc1ccc(COc2cccc(C3CCN(Cc4nc5ccc(C(=O)O)cc5n4Cc4cnco4)CC3)n2)c(F)c1 [Example 10A-43, 2-[(4-{6-[(4-cyano-2-fluorobenzyl)oxy]pyridin-2-yl}piperidin-1-yl)methyl]-1-(1,3-oxazol-5-ylmethyl)-1H-benzimidazole-6-carboxylic acid]"
7.00,81%,8.22,73%,"O=C(O)c1ccc2nc(CN3CCC(c4cccc(OCc5ccc(F)cc5F)n4)CC3)n(Cc3cnco3)c2c1 [Example 10A-44, 2-[(4-{6-[(2,4-difluorobenzyl)oxy]pyridin-2-yl}piperidin-1-yl)methyl]-1-(1,3-oxazol-5-ylmethyl)-1H-benzimidazole-6-carboxylic acid]"
7.72,75%,9.00,76%,"O=C(O)c1ccc2nc(CN3CCN(c4cccc(OCc5ccc(Cl)cc5F)n4)CC3)n(Cc3cnco3)c2c1 [Example 10A-45, 2-[(4-{6-[(4-chloro-2-fluorobenzyl)oxy]pyridin-2-yl}piperazin-1-yl)methyl]-1-(1,3-oxazol-5-ylmethyl)-1H-benzimidazole-6-carboxylic acid]"
8.36,95%,9.52,80%,"C[C@H]1CN(c2cccc(OCc3ccc(C#N)cc3F)n2)CCN1Cc1nc2ccc(C(=O)O)cc2n1C[C@@H]1CCO1 [Example 10A-47, 2-{[(2S)-4-{6-[(4-cyano-2-fluorobenzyl)oxy]pyridin-2-yl}-2-methylpiperazin-1-yl]methyl}-1-[(2S)-oxetan-2-ylmethyl]-1H-benzimidazole-6-carboxylic acid]"
6.85,76%,8.07,64%,O=C(O)c1ccc2nc(CN3CCN(c4cccc(OCc5ccc(Cl)cc5F)n4)CC3)n(C[C@H]3CCO3)c2c1 [Example 10A-48]
7.96,100%,9.15,81%,"N#Cc1ccc(COc2nc(C3CCN(Cc4nc5ccc(C(=O)O)cc5n4C[C@@H]4CCO4)CC3)ccc2F)c(F)c1 [Example 10A-54, 2-[(4-{6-[(4-cyano-2-fluorobenzyl)oxy]-5-fluoropyridin-2-yl}piperidin-1-yl)methyl]-1-[(2S)-oxetan-2-ylmethyl]-1H-benzimidazole-6-carboxylic acid]"
7.62,98%,8.92,84%,"N#Cc1ccc(COc2nc(C3CCN(Cc4nc5ccc(C(=O)O)cc5n4C[C@@H]4CCO4)CC3)ccc2F)cc1 [Example 10A-55, 2-[(4-{6-[(4-cyanobenzyl)oxy]-5-fluoropyridin-2-yl}piperidin-1-yl)methyl]-1-[(2S)-oxetan-2-ylmethyl]-1H-benzimidazole-6-carboxylic acid]"
